Assay results from US10849904B2, “Methods for treatment of retinal disease by photoreceptor gene expression modulation” (University of Washington, priority 2015, dated 2020).

Tests used:
[1] = tested on: retinas from Rho^P23H mice at P12; assay: P12 Rho^P23H retinal explants, rod degeneration (ONL nuclei, Gnb1); type: cell-based, mouse; details: 1 μM, vs DMSO
Description: The effect of PR1 on Rho expression in adult rods might have potential as a way to slow the degeneration of these cells in dominant forms of retinitis pigmentosa, like Rho^P23H. In this disease, the affected individuals express a mutant form of rhodopsin that is likely inappropriately processed and ultimately leads to the death of the rods. […] The majority of rod cell death in the Rho^P23H transgenic line occurs between P14 and P21. Therefore, explants of retinas from Rho^P23H mice at P12 were made and treated the explants with 1 μM PR1 or DMSO (FIG. 9H). After 6 days in vitro, the retinas were processed for histology. The number of nuclei were counted in the ONL of each retina in the central region 100 μm from the optic nerve head. […] Gnb1 expression was also monitored as another measure of rod photoreceptor preservation because this is not directly affected by PR1 and thus serves as a surrogate for rod number. […]
RNA was isolated using TRIzol (Invitrogen) and cDNA was synthesized using the iScript cDNA synthesis kit (Bio-Rad) following an intervening DNase treatment with RQ1 RNase-free DNase (Promega). SSO Fast (Bio-Rad) was used for quantitative real-time PCR. For analysis, values were normalized to Gapdh and ΔΔCt between DMSO and compound-treated samples was expressed as percent of DMSO treated controls (100*2^ΔΔCt). […]

[2] = tested on: rhodopsin promoter; assay: Dual luciferase rhodopsin promoter reporter assay in HEK293T cells; type: cell-based; details: 10 μM, 2 days
Description: Nr2e3, Crx, and Nrl are known to activate rod gene expression by forming a complex at the promoters of rod genes. To test whether PR1 might interfere with this complex, a luciferase reporter assay was used. For this assay, the rhodopsin promoter driving firefly luciferase was co-transfected with Nrl, Nr2e3, or Crx or all of these transcription factors together into HEK293T cells. A large synergy in the activation of the rhodopsin reporter was found with the combination of these three transcription factors (FIG. 6G).
HEK293T cells were transfected with 1 μg of the luciferase reporter BR-225Luc, 1 ng of the control pRL-CMV (Promega) and 100 ng of hNRL-pCMVSport6 (Open Biosystems), hCRX-pCMVSport6 (Open Biosystems), or hNR2E3-pcDNA3.1/HisC in 24 well plates using Lipofectamine 3000 reagent (Thermo Fisher Scientific). Transfection reagents were removed the following day and replaced with media containing DMSO or 10 μM PR1 for 2 days. Cells were lysed and firefly and renilla luciferase activity was measured with the Dual-Luciferase Reporter Assay System (Promega) using a 1420 Multilabel Victor3V plate reader.

[3] = tested on: S opsin+ photoreceptors; assay: Injection of timed-pregnant dams at E14 and E17, S opsin+ photoreceptors in P0 pups; type: in vivo, mouse; details: dams injected 100 μl of 50 mM at E14 and E17, pups analysed at P0, vs controls
Experimental: Nr2e3 is expressed in developing rods prior to birth, and so to test whether PR1 could affect prenatal rod development, wild type timed-pregnant dams were injected with 100 μl of 50 mM PR1 at E14 and E17, during peak S cone photoreceptor genesis and the onset of Nr2e3 expression (FIG. 7F). The pups were sacrificed at P0 and their retinas collected for staining and for quantifying S opsin+ photoreceptors. […] To determine if PR1 affected rhodopsin expression in developing rods in vivo, pups were injected with 20 μl of 50 mM PR1 or an equal volume of DMSO at P2 or P3 (FIG. 7I). The pups were sacrificed the following day and analyzed rhodopsin expression by qPCR.
Retinal explants or eyecups were fixed in 4% PFA in 1×PBS for 20 minutes at room temperature and then cryoprotected in 30% sucrose in 1×PBS overnight at 4° C. Samples were embedded in OCT (Sakura Finetek), frozen on dry ice, and then sectioned at 14-16 μm on a cryostat (Leica). Slides were blocked with a solution containing 10% Normal Horse Serum (Vector Labs) and 0.5% Triton X-100 (Sigma-Aldrich) in 1×PBS for 1 hour at room temperature and then stained overnight at 4° C. with primary antibodies diluted in blocking solution. […]

number of rod photoreceptors (nuclei) in the ONL, 100 μm from the optic nerve head ([1]; 6 days in vitro): nearly twice
Compound: Cc1cc(C)cc(NC(=O)CCc2nc3sc4c(c3c(=O)[nH]2)CCCC4)c1 [PR1, N-(3,5-dimethylphenyl)-3-(4-oxo-5,6,7,8-tetrahydro-3H-[1]benzothiolo[2,3-d]pyrimidin-2-yl)propanamide]
Gnb1 expression (surrogate for rod number) [1]: significantly more Gnb1 expression | activation of the rhodopsin promoter reporter ([2]; HEK293T transfected with Crx and Nrl): large reduction | activation of the rhodopsin promoter reporter ([2]; HEK293T transfected with Nr2e3, Crx and Nrl): large reduction | number of S opsin-positive cells in pups [3]: increase in the number of S opsin-positive cells
